One experiment concerns the target Vps34 enzyme (Homo sapiens (Human), UniProt Q8NEB9). Description: Vps34 biochemical assay (Adapta kinase assay). Particulars: 20 μM ATP and 200 μM PI:PS in substrate mix, 1 h at room temperature, read-out: Median IC50 uM Adapta. Here is the method: Dilution series of compounds of the invention were prepared in DMSO at 100 times the final assay concentration (n1=n0/3 in 10 points). The compounds were further diluted to 4 times the assay concentration in assay buffer (Life technologies buffer Q, PV5125, diluted 5 times supplemented with 2 mM DTT and 2 mM MnCl2). 2.5 μl of the diluted compounds were added to a 384 well assay plate followed by 2.5 μl of 16.5 nM Vps34 enzyme (Life technologies, PV5126). Enzyme and compounds were pre-incubated at rt for 15 min. Then 5 μl of substrate mix containing 20 μM ATP (Life technologies, PV3227) and 200 μM PI:PS substrate (Life technologies, PV5122) in assay buffer was added to the wells containing compound and enzyme. Mixing was performed by pipetting several times. The reaction was incubated at room temperature for 1 h. Then 5 μl stop-detection mix, prepared as described in the Adapta kinase assay kit instructions (Life technologies, PV5099) containing Adapta Eu-anti-ADP antibody (2.3 nM), Alexa Fluor 647 ADP tracer (9 nM) and EDTA (30 mM) in TR-FRET buffer, was added to quench the reaction. Mixing was performed by pipetting several times. The assay plate was then incubated at room temperature for 30 min and read with Artemis micro plate reader. Percent inhibition of the compounds as compared to DMSO treated control samples was calculated. By the use of Dotmatics software compound concentration versus percent inhibition was fitted to generate IC50 values.

In experiment [1] the test system is autophagy in HOS cells (GFP-LC3). Description: High content screening autophagy assay (GFP-LC3 foci). Type of experiment: cell-based, Human. Particulars: foci area per cell, read-out: Median IC50 (uM) Cellular assay. Here is the method:
Human osteosarcoma cells (HOS) stably expressing a Green Fluorescent Protein (GFP) tagged LC3 (GFP-LC3) were used to determine the inhibitory effect on autophagy of proprietary compounds. For that purpose, autophagy was activated by using the mTOR inhibitor KU-0063794 at 500 nM in the presence of Bafilomycin A1 (Sigma-Aldrich) at 5 nM. Shortly, cells were plated overnight in clear bottom 96-well plates in DMEM-High Modified media (Hi-Clone Cat #SH30285.01). At the start of the experiment, the media was removed and replaced with fresh media containing the mTOR inhibitor, Bafilomycin A1 and the vehicle or a test compound as indicated. After 6 hours the media was removed, cells were washed twice with ice-cold phosphate buffered saline (PBS) and fixed with 4% paraformaldehyde for 20 minutes at room temperature. Then the cells were washed twice with ice-cold PBS before adding Hoechst 33342 at 1 μg/ml in PBS for nuclear staining. After incubation overnight at 4° C., cells were washed once with PBS to remove the excess of dye and 100 μl of PBS was added to each well. Images were acquired at 20× magnification, 6 images per well, using the ImageXpress automated microscope (Molecular Devices Inc.) and analyzed with MetaXpress software to identify LC3-GFP foci. Foci area per cell values were used to generate dose response curves and IC50 values were calculated using the non-linear fitting analysis in GraphPad Prism software.

Setting [2] is: Homo sapiens, HOS, 6 h, HOS cells with GFP-LC3, autophagy activated by KU-0063794 500 nM with Bafilomycin A1 5 nM.

Like-named read-outs stand apart in the source and are kept apart here.

Usually IC50 stands for the point on the concentration scale where inhibition reaches its midpoint.

Chain of Vps34 enzyme (Q8NEB9 whole entry): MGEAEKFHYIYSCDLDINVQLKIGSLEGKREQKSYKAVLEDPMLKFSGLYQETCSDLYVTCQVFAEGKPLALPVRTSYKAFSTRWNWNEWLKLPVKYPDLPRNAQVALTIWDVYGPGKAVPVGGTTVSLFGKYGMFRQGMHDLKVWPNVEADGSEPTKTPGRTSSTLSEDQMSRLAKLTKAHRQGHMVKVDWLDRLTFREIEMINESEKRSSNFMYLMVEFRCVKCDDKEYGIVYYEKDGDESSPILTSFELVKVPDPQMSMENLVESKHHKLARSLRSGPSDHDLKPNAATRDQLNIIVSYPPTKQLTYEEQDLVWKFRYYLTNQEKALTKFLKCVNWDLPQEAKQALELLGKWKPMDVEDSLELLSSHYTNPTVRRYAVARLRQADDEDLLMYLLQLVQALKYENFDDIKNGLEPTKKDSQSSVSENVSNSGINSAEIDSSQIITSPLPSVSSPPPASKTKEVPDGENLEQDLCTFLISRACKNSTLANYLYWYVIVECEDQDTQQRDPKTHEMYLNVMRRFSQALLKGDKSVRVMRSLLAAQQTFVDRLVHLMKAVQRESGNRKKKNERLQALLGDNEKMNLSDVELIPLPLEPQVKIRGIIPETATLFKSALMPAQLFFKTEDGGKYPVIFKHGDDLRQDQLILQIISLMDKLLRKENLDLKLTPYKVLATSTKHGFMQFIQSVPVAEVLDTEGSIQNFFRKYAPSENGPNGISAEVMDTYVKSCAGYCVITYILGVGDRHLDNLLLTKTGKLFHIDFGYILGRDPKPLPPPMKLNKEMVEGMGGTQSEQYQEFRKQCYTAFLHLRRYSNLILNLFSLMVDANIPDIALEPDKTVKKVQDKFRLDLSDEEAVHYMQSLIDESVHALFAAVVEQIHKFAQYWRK

Consider `C[C@@H]1COCCN1c1cc(N2CCOCC2C(F)(F)F)[nH]c(=O)c1` (stereo partly drawn) [Example 32, 4-[(3R)-3-methylmorpholin-4-yl]-6-[3-(trifluoromethyl)morpholin-4-yl]-1H-pyridin-2-one], for which the IC50 on Vps34 enzyme is 0.006 µM; in experiment [1] (setting [2]) it was 0.3 µM.

As for `C[C@@H]1COCCN1c1cc(N2CCOCC2c2ccccc2)[nH]c(=O)c1` (single isomer, unassigned) [Example 26_1], the IC50 was determined as 0.04 µM on Vps34 enzyme and 0.2 µM in experiment [1] (setting [2]).

`COc1cccc(C2CCCN2c2cc(N3CCOCC3C)cc(=O)[nH]2)c1` (centres unmarked) [Example 7, 6-[2-(3-methoxyphenyl)pyrrolidin-1-yl]-4-(3-methylmorpholin-4-yl)-1H-pyridin-2-one]: the concentration for half-maximal inhibition (IC50) on Vps34 enzyme worked out at 0.004 µM; in experiment [1] (setting [2]) it was 0.5 µM.

Regarding `CC1COCCN1c1cc(N2CCCC2c2ccccc2)[nH]c(=O)c1` (centres unmarked) [Example 9, 4-(3-methylmorpholin-4-yl)-6-(2-phenylpyrrolidin-1-yl)-1H-pyridin-2-one], the IC50 on Vps34 enzyme was determined as 0.02 µM; in experiment [1] (setting [2]), 2 µM.

With `C[C@@H]1COCCN1c1cc(N2CCCC2c2cccc(C3CC3)c2)[nH]c(=O)c1` (stereo partly drawn) [Example 37, 6-[2-(3-cyclopropylphenyl)pyrrolidin-1-yl]-4-[(3R)-3-methylmorpholin-4-yl]-1H-pyridin-2-one], the IC50 on Vps34 enzyme came to 0.02 µM; in experiment [1] (setting [2]) it was 0.3 µM.

Consider `O=c1cc(N2CCOCC2)cc(N2CCC[C@@H]2c2ccccc2)[nH]1` [Example 4, 4-morpholino-6-[(2R)-2-phenylpyrrolidin-1-yl]-1H-pyridin-2-one], for which the concentration for half-maximal inhibition (IC50) turned out to be 0.05 µM on Vps34 enzyme and 9 µM in experiment [1] (setting [2]).

On to `CC1COCCN1c1cc(N2CCCC2c2cccnc2)[nH]c(=O)c1` (centres unmarked) [Example 8, 4-(3-methylmorpholin-4-yl)-6-[2-(3-pyridyl)pyrrolidin-1-yl]-1H-pyridin-2-one], for which the concentration for half-maximal inhibition (IC50) on Vps34 enzyme was 0.05 µM; in experiment [1] (setting [2]) it was 10 µM.

Turning to `COc1cccc(C2CCCN2c2cc(N3CCOC[C@H]3C)cc(=O)[nH]2)c1` (mixture of isomers) [Example 17, (R) and (S) 6-[2-(3-methoxyphenyl)pyrrolidin-1-yl]-4-[(3R)-3-methylmorpholin-4-yl]-1H-pyridin-2-one], the half-inhibitory concentration (IC50) worked out at 0.01 µM on Vps34 enzyme and 0.1 µM in experiment [1] (setting [2]).

Take `C[C@@H]1COCCN1c1cc(N2CCCC2c2cccc(Cl)c2)[nH]c(=O)c1` (single isomer, unassigned) [Example 36_2]: the IC50 at Vps34 enzyme was 0.02 µM; in experiment [1] (HOS cells with GFP-LC3, autophagy activated by KU-0063794 500 nM with Bafilomycin A1 5 nM, 6 hours), 0.7 µM.

Consider `CC1COCCN1c1cc(C2CCOCC2)[nH]c(=O)c1` (centres unmarked) [Example 6, 4-(3-methylmorpholin-4-yl)-6-tetrahydropyran-4-yl-1H-pyridin-2-one], for which the figures for the IC50 (at Vps34 enzyme; in experiment [1] (setting [2])) were 0.2 µM and 5 µM, respectively.

As to `O=c1cc(N2CCOCC2)cc(N2CCCC2c2ccccc2)[nH]1` (centres unmarked) [Example 1, 4-morpholino-6-(2-phenylpyrrolidin-1-yl)-1H-pyridin-2-one], the half-inhibitory concentration (IC50) at Vps34 enzyme worked out at 0.05 µM; in experiment [1] (setting [2]), 5 µM.

As for `C[C@@H]1COCCN1c1cc(N2CCN(C(=O)Cc3ccc(F)cc3)CC2C(F)(F)F)[nH]c(=O)c1` (stereo partly drawn) [Example 47, 6-[4-[2-(4-fluorophenyl)acetyl]-2-(trifluoromethyl)piperazin-1-yl]-4-[(3R)-3-methylmorpholin-4-yl]-1H-pyridin-2-one], the IC50 on Vps34 enzyme is 0.006 µM; in experiment [1] (setting [2]), 0.09 µM.

With `C[C@@H]1COCCN1c1cc(N2CCCC2c2cccc(C(F)(F)F)c2)[nH]c(=O)c1` (mixture of isomers) [Example 16, (R) and (S) 4-[(3R)-3-methylmorpholin-4-yl]-6-[2-[3-(trifluoromethyl)phenyl]pyrrolidin-1-yl]-1H-pyridin-2-one], the IC50 at Vps34 enzyme was 0.04 µM; in experiment [1] (setting [2]) it was 0.3 µM.

Turning to `C[C@@H]1COCCN1c1cc(N2CC[S+]([O-])CC2)[nH]c(=O)c1` [Example 27, 4-[(3R)-3-methylmorpholin-4-yl]-6-(1-oxo-1,4-thiazinan-4-yl)-1H-pyridin-2-one], the IC50 on Vps34 enzyme is 0.4 µM.

Regarding `C[C@@H]1COCCN1c1cc(N2CCCC2c2cnn(C)c2)[nH]c(=O)c1` (single isomer, unassigned) [Example 19_2], the 50% inhibitory concentration (IC50) on Vps34 enzyme worked out at 0.3 µM.

Regarding `C[C@@H]1COCCN1c1cc(N2CCCC2c2ccccn2)[nH]c(=O)c1` (mixture of isomers) [Example 38, (R) and (S) 4-[(3R)-3-methylmorpholin-4-yl]-6-[2-(2-pyridyl)pyrrolidin-1-yl]-1H-pyridin-2-one], the IC50 on Vps34 enzyme is 0.05 µM.

On to `C[C@@H]1COCCN1c1cc(N2CCCC2c2cccc(C(F)(F)F)c2)[nH]c(=O)c1` (single isomer, unassigned) [Example 16_2], for which the half-inhibitory concentration (IC50) on Vps34 enzyme turned out to be 0.08 µM.

On to `CCn1ccc(C2CCCN2c2cc(N3CCOC[C@H]3C)cc(=O)[nH]2)n1` (single isomer, unassigned) [Example 21_2], for which the 50% inhibitory concentration (IC50) at Vps34 enzyme turned out to be 0.3 µM.

For the molecule `COC(C)(C)C1CCCN1c1cc(N2CCOC[C@H]2C)cc(=O)[nH]1` (single isomer, unassigned) [Example 11_1], the half-inhibitory concentration (IC50) on Vps34 enzyme was found to be 0.2 µM.

Consider `C[C@@H]1COCCN1c1cc(N2CCCC2C2CCCCC2)[nH]c(=O)c1` (single isomer, unassigned) [Example 12_1], for which, on Vps34 enzyme, the IC50 turned out to be 0.2 µM.

Take `C[C@@H]1COCCN1c1cc(N2CCCC2C2CCCCC2)[nH]c(=O)c1` (single isomer, unassigned) [Example 12_2]: the IC50 on Vps34 enzyme amounted to 0.2 µM.

On to `C[C@@H]1COCCN1c1cc(N2CCCC2c2cc(F)ccc2F)[nH]c(=O)c1` (mixture of isomers) [Example 14, (R) and (S) 6-[2-(2,5-difluorophenyl)pyrrolidin-1-yl]-4-[(3R)-3-methylmorpholin-4-yl]-1H-pyridin-2-one], for which the IC50 on Vps34 enzyme came to 0.04 µM.

Take `COc1cccc(C2CCCCN2c2cc(N3CCOC[C@H]3C)cc(=O)[nH]2)c1` (single isomer, unassigned) [Example 44_2]: the IC50 at Vps34 enzyme turned out to be 0.006 µM.

As for `CC1COCCN1c1cc(N2CCOC[C@H]2C)cc(=O)[nH]1` (single isomer, unassigned) [Example 24_2], on Vps34 enzyme, the IC50 turned out to be 0.2 µM.

As for `C[C@@H]1COCCN1c1cc(N2CCOCC2C(F)(F)F)[nH]c(=O)c1` (single isomer, unassigned) [Example 43_2], the IC50 on Vps34 enzyme was found to be 0.1 µM.

Consider `C[C@@H]1COCCN1c1cc(N2CCCC2c2ccccc2)[nH]c(=O)c1` (mixture of isomers) [Example 18, (R) and (S) 4-[(3R)-3-methylmorpholin-4-yl]-6-(2-phenylpyrrolidin-1-yl)-1H-pyridin-2-one], for which the IC50 at Vps34 enzyme is 0.06 µM.

Regarding `C[C@@H]1COCCN1c1cc(N2CCCC2C(=O)N(C)C)[nH]c(=O)c1` (stereo partly drawn) [Example 10, N,N-dimethyl-1-[4-[(3R)-3-methylmorpholin-4-yl]-6-oxo-1H-pyridin-2-yl]pyrrolidine-2-carboxamide], the IC50 on Vps34 enzyme was 0.4 µM.

For `C[C@@H]1COCCN1c1cc(N2CCOCC23CCC3)[nH]c(=O)c1` [Example 42, 4-[(3R)-3-methylmorpholin-4-yl]-6-(8-oxa-5-azaspiro[3.5]nonan-5-yl)-1H-pyridin-2-one], the half-inhibitory concentration (IC50) on Vps34 enzyme worked out at 0.03 µM.

As for `C[C@@H]1COCCN1c1cc(N2CCCC2c2cccc(F)c2)[nH]c(=O)c1` (single isomer, unassigned) [Example 13_2], the half-inhibitory concentration (IC50) at Vps34 enzyme was determined as 0.1 µM.

In the case of `COc1cccc(C2CCCN2c2cc(N3CCOC[C@H]3C)cc(=O)[nH]2)c1` (single isomer, unassigned) [Example 17_1], the IC50 on Vps34 enzyme was found to be 0.02 µM.

Consider `COC(C)(C)C1CCCN1c1cc(N2CCOC[C@H]2C)cc(=O)[nH]1` (single isomer, unassigned) [Example 11_2], for which the half-inhibitory concentration (IC50) on Vps34 enzyme turned out to be 0.3 µM.

For the origin of these results see US11179399B2, “6-heterocyclyl-4-morpholin-4-ylpyridine-2-one compounds useful for the treatment of cancer and diabetes” (Sprint Bioscience AB, priority 2016, dated 2021).
